Laboratory results reported in EP4389751A1, “HETEROCYCLIC COMPOUNDS AND USES THEREOF” (Kumquat Biosciences Inc., priority 2021, dated 2024).
Read-outs that look alike come from different tables or passages of the source.

Key:
GP2D cells = assay: Cell proliferation assay (CellTiter-Glo), K-Ras G12D cells; assay type: cell-based; conditions: read-out: Inhibition of GP2D Cells (IC50)
How it was run: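 GP2D (K-Ras G12D) cells seeded in DMEM with 2 mM glutamine and 10% FBS, then dosed next day with a dilution series (e.g., 9-point 3-fold). Viability read by CellTiter-Glo luminescence after about 5 days. IC50 from four-parameter fit.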

A549 cells = assay: Cell proliferation assay (CellTiter-Glo), K-Ras G12S cells; assay type: cell-based; conditions: for IC50: Homo sapiens; for ratio of IC50 against a G12D cell line to IC50 against a G12S cell line: K-Ras G12D cell line such as GP2D relative to K-Ras G12S cell line such as A549, greater than 1, 2, 3, 4, 5, 10, 15 or even greater, 8640 min
How it was run: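 A549 cells (K-Ras G12S) in RPMI-1640 with 10% FBS, seeded in standard or ultra-low-attachment plates and dosed next day with a 10-point 3-fold series. Viability read about 6 days later by CellTiter-Glo luminescence. IC50 from four-parameter fit.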

K-Ras G12S = target: T1, K-Ras G12S (Homo sapiens, UniProt P01116, G12S); assay: HTRF assay of the K-Ras / SOS1 interaction; assay type: biochemical; conditions: IC50 (against K-Ras G12D) to IC50 (against K-Ras G12S)
T1 construct: made in house; host or cells: E. coli (e.g., BL21 (DE3))
T1 sequence (P01116 1-188 isoform P01116-2 G12S): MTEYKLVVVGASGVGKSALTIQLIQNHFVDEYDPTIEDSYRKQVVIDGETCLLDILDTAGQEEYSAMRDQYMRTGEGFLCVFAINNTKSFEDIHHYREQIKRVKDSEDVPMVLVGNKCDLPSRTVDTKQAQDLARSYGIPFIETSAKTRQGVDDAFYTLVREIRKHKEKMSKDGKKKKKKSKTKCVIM
How it was run: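 GST-K-Ras G12S with anti-GST-Eu donor and His-hSOS1 with anti-6His-XL665 acceptor in ~5 mM HEPES pH 7.4, ~150 mM NaCl, 1 mM DTT, 0.05% BSA, 0.0025% Igepal. Read after ~10 min or longer; IC50 from 665/620 nm ratio, duplicates at 10 µM down to 0.01 µM.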

[1] = A549, read-out: Inhibition of A549 Cells (IC50)
[2] = A549, A549 cells (K-Ras G12S), bin ≤ 500 nM, read-out: Inhibition of A549 Cells (IC50)
[3] = A549, A549 cells (K-Ras G12S), bin 500 nM to 5 µM, read-out: Inhibition of A549 Cells (IC50)

| SMILES | IC50 (GP2D cells; GP2d) [µM] | IC50 (A549 cells; [1]) [µM] | Ratio of IC50 KRAS G12D vs. IC50 KRAS G12S (K-Ras G12S) | IC50 (GP2D cells; GP2D cells (K-Ras G12D)) [µM] | IC50 (A549 cells; [2]) [µM] | ratio of IC50 against a G12D cell line to IC50 against a G12S cell line (A549 cells) | IC50 (A549 cells; [3]) [µM] |
| --- | --- | --- | --- | --- | --- | --- | --- |
| N#Cc1nccn1C(=O)N1C2CCC1CN(c1nc(OC[C@@]34CCCN3C[C@H](F)C4)nc3c(F)c(-c4ccc(F)c5sc(N)nc45)c(Cl)cc13)C2 [Compound A170, 1-(3-(7-(2-amino-7-fluorobenzo[d]thiazol-4-yl)-6-chloro-8-fluoro-2-(((2R,7aS)-2-fluorotetrahydro-1H-pyrrolizin-7a(5H)-yl)methoxy)quinazolin-4-yl)-3,8-diazabicyclo[3.2. 1]octane-8-carbonyl)-1H-imidazole-2-carbonitrile] | ≤ 1 | 0.5 to 5 | A (A: indicates that the ratio of IC50 against KrasG12D vs. IC50 against KrasG12S is 1-fold or greater) |  |  |  |  |
| N#Cc1c(N)sc2c(F)ccc(-c3c(Cl)cc4c(N5CCC6C5CN6C(=O)n5cncn5)nc(OC[C@@]56CCCN5C[C@H](F)C6)nc4c3F)c12 (stereo partly drawn) [Compound A183, 4-(4-(6-(1H-1,2,4-triazole-1-carbonyl)-2,6-diazabicyclo[3.2.0]heptan-2-yl)-6-chloro-8-fluoro-2-(((2R,7aS)-2-fluorotetrahydro-1H-pyrrolizin-7a(5H)-yl)methoxy)quinazolin-7-yl)-2-amino-7-fluorobenzo[b]thiophene-3-carbonitrile] |  |  | A (A: indicates that the ratio of IC50 against KrasG12D vs. IC50 against KrasG12S is 1-fold or greater) | ≤ 1 | ≤ 0.5 | greater than 1 |  |
| Cc1nc(C)n(C(=O)N2CC3(COCCN(c4nc(OC[C@@]56CCCN5C[C@H](F)C6)nc5c(F)c(-c6ccc(F)c7sc(N)c(C#N)c67)c(Cl)cc45)C3)C2)n1 [Compound A185, 2-amino-4-(6-chloro-4-(2-(3,5-dimethyl-1H-1,2,4-triazole-1-carbonyl)-6-oxa-2,9-diazaspiro[3.6]decan-9-yl)-8-fluoro-2-(((2R,7aS)-2-fluorotetrahydro-1H-pyrrolizin-7a(5H)-yl)methoxy)quinazolin-7-yl)-7-fluorobenzo[b]thiophene-3-carbonitrile] |  |  | A (A: indicates that the ratio of IC50 against KrasG12D vs. IC50 against KrasG12S is 1-fold or greater) | 1 to 10 | ≤ 0.5 |  |  |
| Nc1nc2c(-c3c(Cl)cc4c(N5CCCN(C(=O)n6cncn6)CC5)nc(OC[C@@]56CCCN5C[C@H](F)C6)nc4c3F)ccc(F)c2s1 [Compound A191, (4-(7-(2-amino-7-fluorobenzo[d]thiazol-4-yl)-6-chloro-8-fluoro-2-(((2R,7aS)-2-fluorotetrahydro-1H-pyrrolizin-7a(5H)-yl)methoxy)quinazolin-4-yl)-1,4-diazepan-1-yl)(1H-1,2,4-triazol-1-yl)methanone] |  |  | A (A: indicates that the ratio of IC50 against KrasG12D vs. IC50 against KrasG12S is 1-fold or greater) | 1 to 10 |  |  | 0.5 to 5 |
| N#Cc1c(N)sc2c(F)ccc(-c3c(Cl)cc4c(N5CCOC6(CN(C(=O)n7ccnn7)C6)C5)nc(OC[C@@]56CCCN5C[C@H](F)C6)nc4c3F)c12 [Compound A195, 4-(4-(2-(1H-1,2,3-triazole-1-carbonyl)-5-oxa-2,8-diazaspiro[3.5]nonan-8-yl)-6-chloro-8-fluoro-2-(((2R,7aS)-2-fluorotetrahydro-1H-pyrrolizin-7a(5H)-yl)methoxy)quinazolin-7-yl)-2-amino-7-fluorobenzo[b]thiophene-3-carbonitrile] |  |  | A (A: indicates that the ratio of IC50 against KrasG12D vs. IC50 against KrasG12S is 1-fold or greater) | 1 to 10 | ≤ 0.5 |  |  |
| N#Cc1c(N)sc2c(F)ccc(-c3c(Cl)cc4c(N5CCOC6CN(C(=O)n7cncn7)CC65)nc(OC[C@@]56CCCN5C[C@H](F)C6)nc4c3F)c12 (stereo partly drawn) [Compound A218, 4-(4-(6-(1H-1,2,4-triazole-1-carbonyl)hexahydropyrrolo [3,4-b][1,4]oxazin-4(4aH)-yl)-6-chloro-8-fluoro-2-(((2R,7aS)-2-fluorotetrahydro-1H-pyrrolizin-7a(5H)-yl)methoxy)quinazolin-7-yl)-2-amino-7-fluorobenzo[b]thiophene-3-carbonitrile] |  |  | A (A: indicates that the ratio of IC50 against KrasG12D vs. IC50 against KrasG12S is 1-fold or greater) | 1 to 10 | ≤ 0.5 | greater than 1 |  |
| N#Cc1ccn(C(=O)N2C3CCC2CN(c2nc(OC[C@@]45CCCN4C[C@H](F)C5)nc4c(F)c(-c5ccc(F)c6sc(N)c(C#N)c56)c(Cl)cc24)C3)n1 [Compound A224, 1-(3-(7-(2-amino-3-cyano-7-fluorobenzo[b]thiophen-4-yl)-6-chloro-8-fluoro-2-(((2R,7aS)-2-fluorotetrahydro-1H-pyrrolizin-7a(5H)-yl)methoxy)quinazolin-4-yl)-3,8-diazabicyclo[3.2. 1]octane-8-carbonyl)-1H-pyrazole-3-carbonitrile] |  |  | A (A: indicates that the ratio of IC50 against KrasG12D vs. IC50 against KrasG12S is 1-fold or greater) | ≤ 1 |  |  | 0.5 to 5 |
| CN(C)C1CN(c2nc(N3CCOC4(CN(C(=O)n5cncn5)C4)C3)c3cc(Cl)c(-c4ccc(F)c5sc(N)c(C#N)c45)c(F)c3n2)C1 [Compound A256, 4-(4-(2-(1H-1,2,4-triazole-1-carbonyl)-5-oxa-2,8-diazaspiro[3.5]nonan-8-yl)-6-chloro-2-(3-(dimethylamino)azetidin-1-yl)-8-fluoroquinazolin-7-yl)-2-amino-7-fluorobenzo[b]thiophene-3-carbonitrile] |  |  | A (A: indicates that the ratio of IC50 against KrasG12D vs. IC50 against KrasG12S is 1-fold or greater) | 1 to 10 | ≤ 0.5 |  |  |
| N#Cc1c(N)sc2c(F)ccc(-c3c(Cl)cc4c(N[C@H]5C[C@H]6CC[C@@H](C5)N6C(=O)n5cncn5)nc(OC[C@@]56CCCN5C[C@H](F)C6)nc4c3F)c12 [Compound A257, 4-(4-(((1R,3r,5S)-8-(1H-1,2,4-triazole-1-carbonyl)-8-azabicyclo[3.2.1]octan-3-yl)amino)-6-chloro-8-fluoro-2-(((2R,7aS)-2-fluorotetrahydro-1H-pyrrolizin-7 a(5H)-yl)methoxy)quinazolin-7-yl)-2-amino-7-fluorobenzo[b]thiophene-3-carbonitrile] | 1 to 10 | 0.5 to 5 | A (A: indicates that the ratio of IC50 against KrasG12D vs. IC50 against KrasG12S is 1-fold or greater) |  |  |  |  |
| N#Cc1c(N)sc2c(F)ccc(-c3c(Cl)cc4c(OC5CCCCN(C(=O)n6cncn6)C5)nc(OC[C@@]56CCCN5C[C@H](F)C6)nc4c3F)c12 (stereo partly drawn) [Compound A258, 4-(4-((1-(1H-1,2,4-triazole-1-carbonyl)azepan-3-yl)oxy)-6-chloro-8-fluoro-2-(((2R,7aS)-2-fluorotetrahydro-1H-pyrrolizin-7a(5H)-yl)methoxy)quinazolin-7-yl)-2-amino-7-fluorobenzo[b]thiophene-3-carbonitrile] |  |  | A (A: indicates that the ratio of IC50 against KrasG12D vs. IC50 against KrasG12S is 1-fold or greater) | ≤ 1 | ≤ 0.5 |  |  |
| N#Cc1c(N)sc2c(F)ccc(-c3c(Cl)cc4c(N5CCC6(CN(C(=O)n7cncn7)C6)C5)nc(OC[C@@]56CCCN5C[C@H](F)C6)nc4c3F)c12 [Compound A277, 4-(4-(2-(1H-1,2,4-triazole-1-carbonyl)-2,6-diazaspiro[3.4]octan-6-yl)-6-chloro-8-fluoro-2-(((2R,7aS)-2-fluorotetrahydro-1H-pyrrolizin-7a(5H)-yl)methoxy)quinazolin-7-yl)-2-amino-7-fluorobenzo[b]thiophene-3-carbonitrile] |  |  | A (A: indicates that the ratio of IC50 against KrasG12D vs. IC50 against KrasG12S is 1-fold or greater) | 1 to 10 | ≤ 0.5 | greater than 1 |  |
| Cc1nc(C)n(C(=O)N2CC3(C2)CN(c2nc(OC[C@@]45CCCN4C[C@H](F)C5)nc4c(F)c(-c5ccc(F)c6sc(N)c(C#N)c56)c(Cl)cc24)CCO3)n1 [Compound A283, 2-amino-4-(6-chloro-4-(2-(3,5-dimethyl-1H-1,2,4-triazole-1-carbonyl)-5-oxa-2,8-diazaspiro[3.5]nonan-8-yl)-8-fluoro-2-(((2R,7aS)-2-fluorotetrahydro-1H-pyrrolizin-7a(5H)-yl)methoxy)quinazolin-7-yl)-7-fluorobenzo[b]thiophene-3-carbonitrile] |  |  | A (A: indicates that the ratio of IC50 against KrasG12D vs. IC50 against KrasG12S is 1-fold or greater) | 1 to 10 | ≤ 0.5 |  |  |
